What all share (experiment): SPR
What all share (assay type): binding

In test [1] the target is T1, ADIPOR2 (adiponectin receptor 2) (Homo sapiens, UniProt Q86V24).
T1 sequence (Q86V24 1-386): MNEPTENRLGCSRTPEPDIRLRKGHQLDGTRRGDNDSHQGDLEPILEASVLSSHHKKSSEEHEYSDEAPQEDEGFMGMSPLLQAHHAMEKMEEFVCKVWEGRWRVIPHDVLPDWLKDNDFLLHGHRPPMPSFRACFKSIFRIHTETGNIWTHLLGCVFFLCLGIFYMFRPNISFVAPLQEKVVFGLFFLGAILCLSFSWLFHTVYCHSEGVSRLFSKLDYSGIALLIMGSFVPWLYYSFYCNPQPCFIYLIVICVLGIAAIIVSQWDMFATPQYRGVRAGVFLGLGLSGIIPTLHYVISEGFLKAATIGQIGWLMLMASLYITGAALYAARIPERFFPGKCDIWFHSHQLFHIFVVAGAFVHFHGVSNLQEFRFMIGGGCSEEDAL

In another test the target is T2, ADIPOR2 R335A (Homo sapiens, UniProt Q86V24, R335A).
T2 sequence (Q86V24 1-386 R335A): T1 sequence (Q86V24 1-386) with R335A

The target in the next test is T3, ADIPOR2 R331A (Homo sapiens, UniProt Q86V24, R331A).
T3 sequence (Q86V24 1-386 R331A): T1 sequence (Q86V24 1-386) with R331A

Substitutions are numbered along the chain they refer to. pKd: −log10 of the molar value.

Consider `COc1cc(C(=O)OCCCCNC(=N)N)cc(OC)c1O` [SCM-198], for which the pKd in test [1] was 5.70; on ADIPOR2 R335A, 4.30; at ADIPOR2 R331A, 5.00.

These data come from paper PMC11649909 (Nature Communications, 2024).
